Measurements reported in patent US20210308211A1, “METHOD OF TREATING VIRAL INFECTIONS” (priority 2020, published 2021).
Values joined by “and” are separate entries in the source; they are usually repeats but may differ in a detail not shown here. Identical values can stand only once. “Also recorded” adds a separate entry of the source. Non-standard residues stand in square brackets, D forms with d. Residues, ends and D or L forms follow the SMILES beside them. pS = N[C@@H](COP(=O)(O)O)C(=O)O

How the values were obtained:
Balb/c mice = experiment: 15-day ovalbumin-induced airway hypereosinophilia model, BAL cell counts; format: in vivo, mouse; conditions: for B cells / Eosinophils / Macrophages / Neutrophils / T cells / Total cells: per mouse
Protocol: The anti-inflammatory effect of the P140 phosphopeptide was evaluated when administered locally (intranasally) or systemically (intravenously) in a 15-day model of hypereosinophilic airway inflammation in mice.
The P140 phosphopeptide was solubilized in sterile water (Braun) and 10× concentrate sterile saline was added to adjust osmolarity to 300 mosm. Osmolarity was controlled with a micro osmometer (Löser, type 15) and validated (302 mosm).
The P140 phosphopeptide was used in vivo at the dose of 4 mg/kg by intranasal (i.n.) and intravenous (i.v.) routes. Control animals received equivalent volumes (1 ml/kg for i.n. and 2 ml/kg for i.v.) of saline (Table 6).
Nine-week-old male Balb/c mice were sensitized by intraperitoneal (i.p.) injections of a mixture containing 50 μg OVA (Sigma-Aldrich) and 2 mg alum (Sigma-Aldrich) in 0.1 ml saline. Mice were challenged by i.n. administration of 25 μl of OVA on day 5, then 25 μl of OVA and/or saline on day 12, 13 and 14. Mice were treated by i.v. injection (2 ml/kg) or i.n. administration (1 ml/kg) of P140 or solvent on day 9 (See FIG. 9).
BAL was performed twenty-four hours after […] challenge as described (Daubeuf, F. and Frossard, N. 2012. Performing Bronchoalveolar Lavage in the Mouse. Curr Protoc Mouse Biol 2:167-175). Mice were anaesthetized IP (Ketamine 150 mg/kg—Xylasine 10 mg/kg). Blood was collected from the heart, centrifuged at 10,000 g for 2 min and serum stored at −20° C. After semi-excision of the trachea, a plastic cannula was inserted, and airspace washed with 0.5 ml of 0.9% NaCl injected with a 1 ml syringe. This procedure was performed 10 times. The initial concentrated supernatant of the 2 first lavages (volume=2×0.5 ml administered, ˜0.5 ml recovered) was collected for cytokine measurements. The remaining BAL fluid was centrifuged (300 g for 5 min, 4° C.), and cell pellets pooled. The cell pellet was suspended in 500 μl of 0.9% NaCl and used for total cell counts evaluated on a Muse® Cell Analyser. Differential cell counts were assessed by flow cytometry (LSRII® cytometer, BD Bioscience). BAL cells were added with FCblock (0.5 μl, 553142, BD Bioscience) in a black microplate, incubated for 20 min at room temperature. Then, marker antibodies were added: CD11c-FITC (557400, BD bioscience), Gr-1-Pe-eFluor610 (61-5931-82, eBioscience), CD11b-APC-Cy7 (557657, BD bioscience), CD45-AlexaFluor700 (103128, BioLegend), CD3-BV605 (564009, BD bioscience), CD19-PE-Cy7 (552854, BD bioscience). Antibodies were incubated with BAL cells for 30 min at room temperature before DAPI (5 μl, BD bioscience) addition, and flow cytometry was performed immediately.
Data are presented as means±SEM. Differences between groups were tested for statistical significance using one-way ANOVA followed by Tukey's post-test. For statistical analysis, control groups 1, 2 and 3 were pooled.

C57BL/6 mice = experiment: DSS-induced colonic inflammation model; format: in vivo, mouse
Text: Normal mice (C57BL/6; 7 week-old; males) have received the P140 peptide ([…], iv route; 10 mice) or saline only (control group; 10 mice) at days −2 and −1. At day 0, dextran sodium sulfate (DSS; 2-3%) was administrated to induce the disease.
Animals were examined every day for body weight loss, stool consistency, diarrhea, and blood in the feces. The animals were sacrificed around day 14 or at any time if they are very sick (loss >25% body weight). Statistics: Mann-Whitney (exact)

[1] = BAL, P140-IN (i.n. 4 mg/kg, day 9), OVA challenge
[2] = BAL, P140-IN (i.n. 4 mg/kg, day 9), saline challenge
[3] = BAL, P140-IV (i.v. 4 mg/kg, day 9), OVA challenge
[4] = BAL, P140-IV (i.v. 4 mg/kg, day 9), saline challenge

CC[C@H](C)[C@H](NC(=O)[C@H](Cc1ccccc1)NC(=O)[C@H](C)NC(=O)[C@H](Cc1ccc(O)cc1)NC(=O)CNC(=O)[C@H](CCCNC(=N)N)NC(=O)[C@@H]1CCCN1C(=O)[C@H](CCCCN)NC(=O)CNC(=O)[C@H](COP(=O)(O)O)NC(=O)[C@H](CCCNC(=N)N)NC(=O)[C@H](CCCCN)NC(=O)[C@H](CO)NC(=O)[C@H](Cc1ccc(O)cc1)NC(=O)[C@@H](NC(=O)[C@H](CCSC)NC(=O)[C@H](Cc1c[nH]cn1)NC(=O)[C@@H](NC(=O)[C@@H](N)CCCNC(=N)N)[C@@H](C)CC)C(C)C)C(=O)N[C@@H](CCC(=O)O)C(=O)N[C@@H](Cc1ccc(O)cc1)C(=O)O [Compound P140] (H-RIHMVYSKR[pS]GKPRGYAFIEY-OH; N-terminus and C-terminus assumed)
B cells (Balb/c mice; [1]): 25606 and 32251 and 26562 and 23383 and 33156 and 13236 | Eosinophils (Balb/c mice; [1]): 490306 and 497948 and 737671 and 839841 and 792249 and 615171 | Macrophages (Balb/c mice; [1]): 271110 and 322340 and 247391 and 538954 and 436210 and 286509 | Neutrophils (Balb/c mice; [1]): 57542 and 60787 and 62354 and 95173 and 47346 and 65366 | T cells (Balb/c mice; [1]): 44036 and 61800 and 73159 and 118360 and 101951 and 61293 | Total cells (Balb/c mice; [1]): 862995 and 942875 and 1120576 and 1592328 and 1377755 and 1028339 | B cells (Balb/c mice; [2]): 112 and 242 | Eosinophils (Balb/c mice; [2]): 168 and 103 | Macrophages (Balb/c mice; [2]): 388102 and 434029 | Neutrophils (Balb/c mice; [2]): 56 and 61 | T cells (Balb/c mice; [2]): 4135 and 4180 | Total cells (Balb/c mice; [2]): 392461 and 438573 | B cells (Balb/c mice; [3]): 10219 and 15209 and 14027 and 17417 and 11003 and 10922 | Eosinophils (Balb/c mice; [3]): 425928 and 272763 and 473105 and 470027 and 327186 and 429469 | Macrophages (Balb/c mice; [3]): 439265 and 442055 and 244523 and 293070 and 342134 and 379565 | Neutrophils (Balb/c mice; [3]): 42783 and 21442 and 59616 and 76867 and 40275 and 31756 | T cells (Balb/c mice; [3]): 41744 and 43881 and 32677 and 55502 and 28857 and 45030 | Total cells (Balb/c mice; [3]): 949720 and 780142 and 809921 and 895467 and 738452 and 885821 | B cells (Balb/c mice; [4]): 70 and 266 | Eosinophils (Balb/c mice; [4]): 110 and 166 | Macrophages (Balb/c mice; [4]): 335658 and 335200 | Neutrophils (Balb/c mice; [4]): 259 and 133 | T cells (Balb/c mice; [4]): 5311 and 4790 | Total cells (Balb/c mice; [4]): 341738 and 340389 | Number of cells recovered in BAL fluid as compared to vehicle (Balb/c mice; control mice challenged with saline, i.n. or i.v.): little effect | Inflammatory cell recruitment in BAL (in words) (Balb/c mice; i.n. route, 4 mg/kg, OVA challenge): little effect; also recorded: without substantial effect | Neutrophils recruitment, change vs OVA group (Balb/c mice; i.v. 4 mg/kg, OVA challenge, BAL, not significant): −38% | Eosinophil recruitment, change vs OVA group (Balb/c mice; i.v. 4 mg/kg, OVA challenge, BAL, p<0.001): −50% | T cells recruitment, change vs OVA group (Balb/c mice; i.v. 4 mg/kg, OVA challenge, BAL, p<0.01): −66% | B cells recruitment, change vs OVA group (Balb/c mice; i.v. 4 mg/kg, OVA challenge, BAL, p<0.05): −42% | Anti-inflammatory effect (in words) (Balb/c mice; i.v. administration 4 mg/kg, OVA challenge): shows anti-inflammatory effect | DAI (C57BL/6 mice; P140 i.v. days −2 and −1 vs saline, p=0.5386): Little difference | Colon size (C57BL/6 mice; P140 i.v. days −2 and −1 vs saline, reflects decrease of inflammation, p=0.0011): significant increase | Body weight (C57BL/6 mice; between the two groups): No difference | Day at which blood appeared in the feces (C57BL/6 mice; control groups day +6): +8 day
